Laboratory results from patent US7989165B2, “Tape stripping methods for analysis of skin disease and pathological skin state” (DermTech International, priority 2004, dated 2011).
“And” between values parts separate entries of the source, which are not always exact repeats. Equal entries are not always repeated. Marks after values point to notes of the source that are not given here.

Assays:
Format in all cases: in vivo, human
Krt-17 mRNA = test: RT-PCR of keratin-17 mRNA relative to β-actin in SLS-irritated and control skin (tape and biopsy); set-up: key to ΔCt,Krt-17, Tape, SLS / ΔCt,Krt-17, Biopsy, SLS: ΔCt: keratin mRNA Ct normalized to β-actin Ct in same sample; settings: for ΔCt,Krt-17, Biopsy, SLS / ΔCt,Krt-17, Tape, SLS: 1% SLS occlusive patch 24 hours, mid-back, relative to β-actin, per subject 1-10 and Average; for ΔCt,Krt-17, Biopsy, SLS / Fold Increase Krt-17/βactin mRNA ratio vs. normal, Biopsy, SLS: biopsy RNA; for ΔCt,Krt-17, Biopsy, SLS / ΔCt,Krt-17, Tape, SLS / Fold Increase Krt-17/βactin mRNA ratio vs. normal, Biopsy, SLS / Fold Increase Krt-17/βactin mRNA ratio vs. normal, Tape, SLS: sulfate; for ΔCt,Krt-17, Tape, SLS / Fold Increase Krt-17/βactin mRNA ratio vs. normal, Tape, SLS: tape-stripped RNA; for Fold Increase Krt-17/βactin mRNA ratio vs. normal, Biopsy, SLS / Fold Increase Krt-17/βactin mRNA ratio vs. normal, Tape, SLS: 1% SLS patch 24 hours vs untreated skin, per subject and Average
Excerpt: (§1) The samples analyzed in this study are those described in the protocol performed by Wong et al. (Wong, Tran et al. 2004). […] Patches were removed and equivalent skin sites were biopsied and tape stripped as described in the Examples above. As an additional control, normal skin was also biopsied and tape stripped. Samples were processed for total RNA and assayed for keratin-10, keratin-16, keratin-17 and β-actin mRNA. The keratin mRNAs were normalized to β-actin mRNA in each sample. The semi-quantitative RT-PCR assay has been previously described (Wong, Tran et al. 2004).

Krt-16 mRNA = test: RT-PCR of keratin-16 mRNA relative to β-actin in SLS-irritated and control skin (tape and biopsy); set-up: key to ΔCt,Krt-16, Tape, SLS / ΔCt,Krt-16, Biopsy, SLS: ΔCt: keratin mRNA Ct normalized to β-actin Ct in same sample
Excerpt: as §1

[1] = test system: gene expression levels in skin; test: DNA microarray (Affymetrix HG-U133A GeneChip) of tape-harvested RNA, untreated vs water vs SLS-occluded skin; settings: threshold p=0.003, PPDE(p) 0.99
Excerpt: Clinical protocols: The study protocols were reviewed and approved by an independent IRB (BioMed IRB, San Diego) and all subjects signed informed consent. Ten healthy women, ages 21-55 were enrolled in the study. Regions of unblemished, normal appearing skin on the mid back were chosen for the application of 2 occlusive patches in the form of bandages approximately 4 cm×6.5 cm. The bandages were made using a clear, non-porous plastic hypoallergenic adhesive tape. In the center of this tape was a Webril (non-woven cotton) patch measuring approximately 2 cm×4.5 cm. One Webril patch contained 0.6 ml of 1% aqueous sodium lauryl sulfate and the other contained 0.6 ml of sterile water as the vehicle control. […] At 24 hours post application, the SLS and water patches were removed and the skin allowed to air dry for 15 minutes before scoring. The sites were scored by a trained technician using the scale provided below. Patched sites were large enough that two areas could be tape harvested without overlap and room left for a shave biopsy (˜2×2 mm). Skin sites were tape stripped with 4 tapes each and then a shave biopsy taken under local anesthetic (lidocaine HCl 1% and epinephrine 1:100,000; Abbott Laboratories). […] In a second study, 3 subjects had 3 patches containing 1% SLS and 3 water patches applied to the mid back for 24 hours: Patches were removed, scored and tape stripped as above. […]

GAPDH mRNA = test: Semi-quantitative RT-PCR of GAPDH mRNA relative to β-actin in SLS-occluded skin (tape and biopsy); settings: 1% SLS 24 h occluded skin, mean ± SD per subject, last line average, sulfate
Excerpt: Clinical protocols: The study protocols were reviewed and approved by an independent IRB (BioMed IRB, San Diego) and all subjects signed informed consent. Ten healthy women, ages 21-55 were enrolled in the study. Regions of unblemished, normal appearing skin on the mid back were chosen for the application of 2 occlusive patches in the form of bandages approximately 4 cm×6.5 cm. The bandages were made using a clear, non-porous plastic hypoallergenic adhesive tape. In the center of this tape was a Webril (non-woven cotton) patch measuring approximately 2 cm×4.5 cm. One Webril patch contained 0.6 ml of 1% aqueous sodium lauryl sulfate and the other contained 0.6 ml of sterile water as the vehicle control. […] The sites were scored by a trained technician using the scale provided below. […] In a second study, 3 subjects had 3 patches containing 1% SLS and 3 water patches applied to the mid back for 24 hours: Patches were removed, scored and tape stripped as above. […]
Quantitative RT-PCR: 10 μl of RNA was reverse transcribed (RT) into cDNA with the Sensiscript Reverse Transcriptase kit and random hexamers in a final volume of […] according to the manufacturer's directions. […]
(§2) Amplification and detection of specific mRNA: Specific mRNAs were converted to cDNA as described above. Specific cDNAs were semi-quantified using gene specific primer/probes (5′-nuclease assay) and fluorescence detection.

IL-8 mRNA = test: Semi-quantitative RT-PCR of IL-8 mRNA relative to β-actin in SLS-occluded skin (tape and biopsy)
Excerpt: Clinical protocols: The study protocols were reviewed and approved by an independent IRB (BioMed IRB, San Diego) and all subjects signed informed consent. Ten healthy women, ages 21-55 were enrolled in the study. Regions of unblemished, normal appearing skin on the mid back were chosen for the application of 2 occlusive patches in the form of bandages approximately 4 cm×6.5 cm. The bandages were made using a clear, non-porous plastic hypoallergenic adhesive tape. In the center of this tape was a Webril (non-woven cotton) patch measuring approximately 2 cm×4.5 cm. One Webril patch contained 0.6 ml of 1% aqueous sodium lauryl sulfate and the other contained 0.6 ml of sterile water as the vehicle control. […] At 24 hours post application, the SLS and water patches were removed and the skin allowed to air dry for 15 minutes before scoring. The sites were scored by a trained technician using the scale provided below. Patched sites were large enough that two areas could be tape harvested without overlap and room left for a shave biopsy (˜2×2 mm). Skin sites were tape stripped with 4 tapes each and then a shave biopsy taken under local anesthetic (lidocaine HCl 1% and epinephrine 1:100,000; Abbott Laboratories). The tapes were applied to the skin using 20 seconds of firm pressure with a circular motion The tape used for tape stripping was a synthetic rubber-based adhesive on a polyurethane film (Product No. 90068, Adhesive Research, Glen Rock, Pa.). An area of uninvolved skin was tape harvested and shave biopsied in an identical manner. Tapes were stored in individual eppendorf tubes at −80 until extraction; biopsy samples were placed in buffer RLT and stored at −80 until extraction. Skin responses to each patch application were examined and graded under light supplied by a 100-watt incandescent blue bulb. The following grading scale was used: 0, no visible reaction; 1, slight, pink, patchy erythema; 2, mild confluent, pink erythema; 3, moderate erythema (definite redness) with edema; 4, strong erythema (very intense redness) with edema. In a second study, 3 subjects had 3 patches containing 1% SLS and 3 water patches applied to the mid back for 24 hours: Patches were removed, scored and tape stripped as above. In a third study, two individuals were tape stripped on uninvolved skin on the upper back at three adjacent sites as above. RNA harvested in these last two studies was used in the DNA microarray experiments described below.
Isolation of RNA: The RNA within skin cells adherent to the 4 tapes used to harvest a site was pooled by simultaneously extracting the tapes in a volume of buffer RLT (supplied with RNeasy kit). Extraction was performed using the manufacturer's directions and included a Proteinase K digestion, sonication of tapes and “on-column” DNase I digestion. RNA was eluted in 100 microliters of sterile, RNase free water. Extraction of biopsies was performed with the same kit according to the manufacturer's instructions.
Quantitative RT-PCR: 10 μl of RNA was reverse transcribed (RT) into cDNA with the Sensiscript Reverse Transcriptase kit and random hexamers in a final volume of […] according to the manufacturer's directions. The reaction was diluted 5-fold with sterile, nuclease-free water (Ambion) for use in the subsequent amplification/detection reaction. For each specific mRNA detection, 3 replicate RT^+ reactions and one RT^− (no reverse transcriptase; negative control) reaction were performed. Two amplification/detection reactions were done on each RT^+ reaction to yield a total of 6 independent determinations of the threshold value (Ct; discussed below).
as §2

[2] = SLS-occluded skin vs uninvolved skin

## CCCCCCCCCCCCOS(=O)(=O)[O-].[Na+] [SLS, sodium lauryl sulfate]
Krt-17 mRNA
  ΔCt,Krt-17, Biopsy, SLS: 0.71 and −2.29 and −2.5 and 1.13 and −1.97 and −1.63 and −2.91 and −1.75 and −1.86 and −0.11
  ΔCt,Krt-17, Tape, SLS: −5.12 and 1.64 and 1.5 and −4.87 and −1.79 and 1.11 and −1.84 and 1.38 and 0.21 and −2.12
  Fold Increase Krt-17/βactin mRNA ratio vs. normal, Biopsy, SLS: 13.31 fold and 94.54 fold and 44.95 fold and 4.51 fold and 27.19 fold and 15.44 fold and 459.45 fold and 195.94 fold and 48.35 fold and 41.13 fold
  Fold Increase Krt-17/βactin mRNA ratio vs. normal, Tape, SLS: 1.67 fold and 0.02 fold (2×) and 0.01 fold and 0.17 fold and 0.05 fold and 0.04 fold and 0.5 fold
Krt-17 mRNA; mean
  ΔCt,Krt-17, Biopsy, SLS: −1.32
  ΔCt,Krt-17, Tape, SLS: −0.99
  Fold Increase Krt-17/βactin mRNA ratio vs. normal, Biopsy, SLS: 42.52 fold
  Fold Increase Krt-17/βactin mRNA ratio vs. normal, Tape, SLS: 0.12 fold
Krt-17 mRNA; SLS-treated skin vs untreated
  average fold-increase of K17, biopsy: 42 fold
  decrease of K17/actin mRNA ratio, tape: 8 fold
Krt-16 mRNA; 1% SLS occlusive patch 24 hours, mid-back, biopsy RNA, relative to β-actin, per subject 1-10 and Average, sulfate
  ΔCt,Krt-16, Biopsy, SLS: 0.97 and −2.43 and −2.21 and 1.41 and −1.12 and −1.75 and −2.01 and −1.79 and 0.74 and −0.32
Krt-16 mRNA; 1% SLS occlusive patch 24 hours, mid-back, tape-stripped RNA, relative to β-actin, per subject 1-10 and Average, sulfate
  ΔCt,Krt-16, Tape, SLS: −4.51 and 3.04 and 3.96 and −2.87 and 0.53 (2×) and 3.1 and 4.32 and 2.87 and −0.97
Krt-16 mRNA; 1% SLS patch 24 hours vs untreated skin, biopsy RNA, per subject and Average, sulfate
  Fold Increase Krt-16/actin mRNA ratio vs. normal, Biopsy, SLS: 14.73 fold and 76.61 fold and 55.14 fold and 18.4 fold and 30.85 fold and 113.69 fold and 108.78 fold and 82.98 fold and 8.57 fold and 24.78 fold
Krt-16 mRNA; 1% SLS patch 24 hours vs untreated skin, tape-stripped RNA, per subject and Average, sulfate
  Fold Increase Krt-16/actin mRNA ratio vs. normal, Tape, SLS: 1.25 fold and 0.03 fold and 0.01 fold and 0.2 fold and 0.02 fold and 0.04 fold and 0.17 fold
Krt-16 mRNA; SLS-treated skin vs untreated
  average decrease in K16 expression, tape: 9 fold
  average fold-increase of K16 mRNA expression, biopsy: 39 fold
[1]
  number of genes differentially expressed, SLS vs water treated: 1,364 genes
GAPDH mRNA; shave biopsy RNA
  ΔCt,GAPDH (Ct,GAPDH − Ct,actin), Biopsy: 1.44 ± 0.11 and 1.68 ± 0.09 and 1.78 ± 0.10 and 2.33 ± 0.07 and 1.73 ± 0.09 and 1.54 ± 0.10 and 3.25 ± 0.08 and 1.05 ± 0.07 and 1.61 ± 0.11 and 1.95 ± 0.08
GAPDH mRNA; tape-harvested RNA
  ΔCt,GAPDH (Ct,GAPDH − Ct,actin), Tape: 3.02 ± 0.08 and 2.28 ± 0.10 and 3.15 ± 0.15 and 2.87 ± 0.10 and 2.68 ± 0.09 and 3 ± 0.11 and 2.85 ± 0.15 and 2.46 ± 0.08 and 2.78 ± 0.44 and 2.56 ± 0.11
IL-8 mRNA; SLS-occluded skin relative to uninvolved skin, biopsy samples, per subject, > = minimum estimate, sulfate
  fold-change in IL-8/β-actin mRNA ratio, Biopsy: >171**^† fold and >12**^† fold and >101**^† fold and >778**^† fold and >42**^† fold and >594**^† fold and >368**^† fold and >1.1 fold (2×) and 84**^† fold
IL-8 mRNA; SLS-occluded skin relative to uninvolved skin, tape samples, per subject, > = minimum estimate, sulfate
  fold-change in IL-8/β-actin mRNA ratio, Tape: 24**^† fold and >9.3**^† fold and >6.8** fold and >235**^† fold and >41**^† fold and 18** fold and >3** fold and 6**^† fold
IL-8 mRNA; [2]
  biopsy samples with significant increases in IL-8/actin mRNA ratio: 8 of 10
  tape-harvested samples with significantly increased IL-8/β-actin mRNA ratio: 8 of 10
IL-8 mRNA; SLS-occluded skin, biopsy RNA, per subject and average, sulfate
  ΔCt,IL-8, Biopsy: 4.13 and 6.56 ± 0.10 and 3.06 ± 0.11 and 0.76 ± 0.13 and 5.11 ± 0.06 and 1.67 ± 0.08 and 1.06 ± 0.07 and 9.81 ± 0.26 and 9.15 ± 0.15 and 1.82 ± 0.05 and 2.29 ± 0.13
IL-8 mRNA; SLS-occluded skin, tape-harvested RNA, per subject and average, > = minimum ΔCt (Ct assigned 37), sulfate
  ΔCt,IL-8, Tape: −1.28 and −0.89 and −1.28 ± 0.11 and −3.05 ± 0.15 and −0.05 ± 0.11 and −0.68 ± 0.08 and −0.44 ± 0.06 and 0.02 ± 0.17 and 0.56 ± 0.07 and >1.51 ± 0.17 and −0.36 ± 0.05 and −2.59 ± 0.07
IL-8 mRNA; tape-harvested, from ΔCt −1.28 and average ΔCt 1.54
  IL-8/actin mRNA ratio of subject 4's SLS site vs average for water-occluded samples: 7.1 fold
IL-8 mRNA; tape-harvested, from ΔCt −1.28 and average ΔCt >2.49
  IL-8/β-actin mRNA ratio of subject 4's SLS site vs average value for uninvolved skin: ≥ 13.6 fold
